From patent US20260240171A1, “BACTERICIDAL COMPOSITION COMPRISING BACILLUS VELEZENSIS TCS001 AND USE THEREOF” (priority 2023, published 2026) come the findings set out here.

Experiment [1] deals with strawberry gray mold-causing pathogen. The experiment can be described thus: Indoor toxicity determination against strawberry gray mold on strawberry fruits. Type of experiment: in vivo. The note with it: after 4 days. Here is the method: Bacillus velezensis TCS001, boscalid, and a mixture of Bacillus velezensis TCS001 and boscalid were diluted to the test doses. Healthy strawberry fruits were used as the test material. The strawberry fruits were immersed in the agent solution for 20 s. Each treatment had 3 replicates, with 9 fruits per replicate, and all fruits were uniformly punctured to a size of 5 mm×5 mm. A spore suspension of strawberry gray mold-causing pathogen at 1*10^5 spores/mL was prepared. After 24 h, the strawberry fruits treated with the agent solution were surface-sprayed with the spore suspension of strawberry gray mold-causing pathogen for inoculation. The strawberry fruits were placed in a high-humidity environment (RH 90-95%) and cultured at a constant temperature of 22° C. After 4 days, the lesion diameter was measured, and the inhibition rate (%) was calculated.
Inhibition rate (%)=(Diameter of colony in blank control−Diameter of colony in treatment)/Diameter of colony in blank control×100.
[formula] • X: inhibition rate of A at a dose of P; • Y: inhibition rate of B at a dose of Q; • E0: theoretical inhibition rate of A+B at a dose of (P+Q); and • E: actual inhibition rate of each treatment.
The Colby method was used to evaluate the synergistic effect of the combination. When E−E0>5%, a synergistic effect was indicated; when E−E0<−5%, an antagonistic effect was indicated; when the value of E−E0 was within ±5%, an additive effect was indicated.

Experiment [2] concerns Bacillus velezensis TCS001. The experiment can be described thus: Affinity screening of Bacillus velezensis TCS001 and boscalid. The class given is cell-based. The following applies: boscalid concentration 400 mg/L in LB plates, 28° C. As for the experimental part: Preparation of Bacillus velezensis TCS001 seed culture: 1,000 mL of LB solid medium (27 mL×30 vials) and 150 mL of LB liquid medium were prepared and sterilized; a single colony of Bacillus velezensis TCS001 was inoculated into the LB liquid medium and cultured in a shaker at 25° C., 164 rpm, for 16 h.
Preparation of toxin-containing medium: technical grade boscalid was dissolved in DMF to prepare a 10% stock solution for later use, which was diluted with sterile water containing 1%. Tween-80 to 10 times the test dose; 3 mL of the agent solution was sequentially pipetted from low concentration to high concentration, added to 27 mL of LB medium, thoroughly shaken, and equally poured into two culture dishes with a diameter of 9 cm to prepare agent-containing plates at corresponding concentrations. Each treatment had 2 replicates.
Affinity screening: the shaken Bacillus velezensis TCS001 seed culture was diluted to 1×10^6 CFU/mL; 40 μL was pipetted and spread onto the agent-containing plates and the control group plates, and incubated in a dark incubator at 28° C. The growth status of TCS001 was observed.

As usually defined, the inhibition is the drop in the measured response relative to a control, in per cent.

As for `O=C(Nc1ccccc1-c1ccc(Cl)cc1)c1cccnc1Cl` [Boscalid], the “Lesion Diameter” value in experiment [1] (10 mg/L) was 1.77 cm; in experiment [1] (12.5 mg/L), 1.73 cm; in experiment [1] (16 mg/L) it was 1.66 cm; in experiment [1] (25 mg/L), 1.14 cm; in experiment [1] (33 mg/L), 1.04 cm; in experiment [1] (50 mg/L) it was 0.99 cm. The “Lesion Diameter” value in experiment [1] (100 mg/L) was determined as 0.85 cm; in experiment [1] (160 mg/L) it was 0.56 cm. Moreover, the inhibition at 10 µg/mL in experiment [1] (96 h, 10 mg/L, read-out: Actual Inhibition Rate E) stood at 34.4%. In addition, in experiment [1] (96 h, 12.5 mg/L, read-out: Actual Inhibition Rate E), the inhibition at 12.5 µg/mL is 35.9%. The inhibition at 16 µg/mL in experiment [1] (96 h, 16 mg/L, read-out: Actual Inhibition Rate E) turned out to be 38.5%. In experiment [1] (96 h, 25 mg/L, read-out: Actual Inhibition Rate E), the inhibition at 25 µg/mL worked out at 57.8%. Also, the inhibition at 33 µg/mL in experiment [1] (96 h, 33 mg/L, read-out: Actual Inhibition Rate E) is 61.5%. In addition, the inhibition at 50 µg/mL in experiment [1] (96 h, 50 mg/L, read-out: Actual Inhibition Rate E) is 63.3%. In addition, in experiment [1] (96 h, 100 mg/L, read-out: Actual Inhibition Rate E), the inhibition at 100 µg/mL was 68.5%. Further, the inhibition at 160 µg/mL in experiment [1] (96 h, 160 mg/L, read-out: Actual Inhibition Rate E) was found to be 79.3%. For the same compound, the “colony count of Bacillus velezensis TCS001” value in experiment [2] is recorded as “comparable to that of the blank control”.
